ChEMBL document CHEMBL5257037, “Side Chain Cyclized Aromatic Amino Acids: Great Tools as Local Constraints in Peptide and Peptidomimetic Design” (J Med Chem, 2016)
Values belong to the molecule of their own block, whether it stands above or below them. *1 amine or outer side, *2 acyl side, *3 side chain or, on linkers, in order; H or OH if unused. Where a SMILES comes first, the peptide text is derived from it. [ ]: non-standard residue; d: D form. Gly(9-fluorenyl) = N[C@H](C(=O)O)C1c2ccccc2-c2ccccc21; X1 = O=C([C@@H](N[*:1])[C@H]1CCc2ccccc21)[*:2]; Tic = O=C(O)[C@@H]1Cc2ccccc2CN1

How the values were obtained:
B2 bradykinin receptor [1] = target: T1, B2 bradykinin receptor (Homo sapiens, UniProt P30411); experiment: Antagonist potency at B2 bradykinin receptor (unknown origin); details: read-out: pA2 (converted)
T1 sequence (P30411 whole entry): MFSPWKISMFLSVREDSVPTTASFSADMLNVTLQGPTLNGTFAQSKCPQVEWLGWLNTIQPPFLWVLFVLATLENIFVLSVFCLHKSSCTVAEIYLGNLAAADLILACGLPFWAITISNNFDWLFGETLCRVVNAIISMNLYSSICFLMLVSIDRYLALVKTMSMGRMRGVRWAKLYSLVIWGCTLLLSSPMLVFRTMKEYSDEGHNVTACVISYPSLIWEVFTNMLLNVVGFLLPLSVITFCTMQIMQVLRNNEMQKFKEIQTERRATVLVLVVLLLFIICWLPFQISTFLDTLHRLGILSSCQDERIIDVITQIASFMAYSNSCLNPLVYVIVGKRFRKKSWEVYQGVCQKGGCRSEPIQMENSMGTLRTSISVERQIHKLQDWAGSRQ

B2 bradykinin receptor [2] = target: T1, B2 bradykinin receptor; experiment: Binding affinity to B2 bradykinin receptor (unknown origin)
[3] = target: T2, Angiotensin-converting enzyme (Homo sapiens, UniProt P12821); experiment: Binding affinity to angiotensin-converting enzyme (unknown origin) assessed as inhibition constant
Neprilysin = Neprilysin (Homo sapiens, UniProt P08473); experiment: Binding affinity to neutral endopeptidase (unknown origin) assessed as inhibition constant
[4] = Inhibition of farnesyltransferase (unknown origin); set-up: species or system Homo sapiens
Substance-P receptor [5] = target: Substance-P receptor (Homo sapiens, UniProt P25103); experiment: Inhibition of [3H]SP binding to human neurokinin receptor 1 expressed in CHO cells; format: cell-based
[6] = target: T2, Angiotensin-converting enzyme; experiment: Inhibition of angiotensin-converting enzyme (unknown origin)
Substance-P receptor [7] = target: Substance-P receptor (Rattus norvegicus, UniProt P14600); experiment: Inhibition of [125I]BHSP binding to neurokinin receptor 1 in rat brain synaptosomes; format: subcellular, Synaptosome

Molecule: N=C(N)NCCC[C@@H](N)C(=O)N[C@@H](CCCNC(=N)N)C(=O)N1CCC[C@H]1C(=O)N1C[C@H](O)C[C@H]1C(=O)NCC(=O)N[C@@H](Cc1cccs1)C(=O)N[C@@H](CO)C(=O)N1Cc2ccccc2C[C@@H]1C(=O)N1Cc2ccccc2C[C@H]1C(=O)N[C@@H](CCCNC(=N)N)C(=O)O
Kb (B2 bradykinin receptor [1]): 0.794 nM
Ki (B2 bradykinin receptor [2]; read-out: Ki): 0.38 nM

Molecule: O=C(CS)N[C@H]1Cc2ccccc2[C@H]2CCC[C@@H](C(=O)O)N2C1=O
Ki [3]: 2 nM
Ki (Neprilysin): 5 nM

Molecule: CSCC[C@H](NC(=O)[C@H]1Cc2ccccc2CN1C(=O)[C@@H](NC(=O)[C@H](CS)NC(=O)[C@@H](N)CCCCN)C(C)C)C(=O)O
IC50 [4]: 100000 nM

Molecule: CC(=O)N1Cc2[nH]c3ccccc3c2C[C@H]1C(=O)OCc1cc(C(F)(F)F)cc(C(F)(F)F)c1
Ki (Substance-P receptor [5]): 390 nM

Molecule: CSCC[C@H](NC(=O)C1CC=CCN1C(=O)[C@@H](NC[C@@H](N)CS)C(C)C)C(=O)O (some centres undefined)
IC50 [4]: 270 nM

Molecule: CSCC[C@H](NC(=O)[C@H](Cc1ccccc1)NC(=O)[C@@H](NC(=O)[C@H](CS)NC(C)=O)C(C)C)C(=O)O (Ac-CVFM-OH)
IC50 [4]: 250 nM

Molecule: CSCC[C@H](NC(=O)[C@@H]1Cc2ccccc2CN1C(=O)[C@@H](NC(=O)[C@@H](N)CS)C(C)C)C(=O)O (H-CV[Tic]M-OH)
IC50 [4]: 1 nM

Molecule: CC[C@H](C)[C@H](NC(=O)CNC(=O)[C@@H](NC(=O)[C@H](Cc1ccccc1)NC(=O)[C@H](CCC(N)=O)NC(=O)[C@H](CCC(=O)O)NC(=O)[C@H](CCCCN)NC(=O)[C@@H]1CCCN1C(=O)[C@@H](N)CCCNC(=N)N)C1c2ccccc2-c2ccccc21)C(=O)N[C@@H](CCSC)C(=O)O (H-RPKEQF[Gly(9-fluorenyl)]GIM-OH)
IC50 (Substance-P receptor [7]): 3 nM

Molecule: CC[C@H](C)[C@H](NC(=O)CNC(=O)[C@@H]1Cc2ccccc2CN1C(=O)[C@H](Cc1ccccc1)NC(=O)[C@H](CCC(N)=O)NC(=O)[C@H](CCC(=O)O)NC(=O)[C@H](CCCCN)NC(=O)[C@@H]1CCCN1C(=O)[C@@H](N)CCCNC(=N)N)C(=O)N[C@@H](CCSC)C(=O)O (H-RPKEQF[Tic]GIM-OH)
IC50 (Substance-P receptor [7]): 1200 nM

Molecule: CC[C@H](C)[C@H](NC(=O)CNC(=O)[C@H](Cc1ccccc1)NC(=O)[C@@H]1Cc2ccccc2CN1C(=O)[C@H](CCC(N)=O)NC(=O)[C@H](CCC(=O)O)NC(=O)[C@H](CCCCN)NC(=O)[C@@H]1CCCN1C(=O)[C@@H](N)CCCNC(=N)N)C(=O)N[C@@H](CCSC)C(=O)O (H-RPKEQ[Tic]FGIM-OH)
IC50 (Substance-P receptor [7]): 2400 nM

Molecule: N=C(N)NCCC[C@H](NC(=O)CN1Cc2ccccc2CC(NC(=O)[C@H](CO)NC(=O)[C@H](Cc2ccccc2)NC(=O)CNC(=O)[C@@H]2CCCN2C(=O)[C@@H]2CCCN2C(=O)[C@@H](N)CCCNC(=N)N)C1=O)C(=O)O (mixture of isomers)
Ki (B2 bradykinin receptor [2]; read-out: pKi (converted)): 794 nM

Molecule: N=C(N)NCCCC(NC(=O)CN1CCCCC2(CCCN2C(=O)[C@H](CO)NC(=O)[C@H](Cc2ccccc2)NC(=O)CNC(=O)[C@@H]2CCCN2C(=O)[C@@H]2CCCN2C(=O)[C@@H](N)CCCNC(=N)N)C1=O)C(=O)O (mixture of isomers; 67)
Ki (B2 bradykinin receptor [2]; read-out: pKi (converted)): 1260 nM

Molecule: N=C(N)NCCCC(NC(=O)CN1CCCCC2(CCCN2C(=O)[C@H](CO)NC(=O)[C@H](Cc2ccccc2)NC(=O)CNC(=O)[C@@H]2CCCN2C(=O)[C@@H]2CCCN2C(=O)[C@@H](N)CCCNC(=N)N)C1=O)C(=O)O (mixture of isomers; 68)
Ki (B2 bradykinin receptor [2]; read-out: pKi (converted)): 251 nM

Molecule: CCC[C@H](N[C@@H](C)C(=O)N1[C@H](C(=O)O)C[C@@H]2CCCC[C@@H]21)C(=O)OCC [PERINDOPRIL]
IC50 [6]: 3.6 nM

Molecule: H-KCVFM-OH
IC50 [4]: 1000 nM

Continued, values first:

Ki (B2 bradykinin receptor [2]; read-out: pKi (converted)): 2510 nM
Molecule: N=C(N)NCCC[C@H](NC(=O)CN1Cc2ccccc2C[C@@H](NC(=O)[C@H](CO)NC(=O)[C@H](Cc2ccccc2)NC(=O)CNC(=O)[C@@H]2CCCN2C(=O)[C@@H]2CCCN2C(=O)[C@@H](N)CCCNC(=N)N)C1=O)C(=O)O

IC50 [6]: 5.8 nM
Molecule: C[C@H](N[C@@H](CCc1ccccc1)C(=O)O)C(=O)N1CCc2ccccc2[C@H]1C(=O)O

IC50 [4]: 5 nM
Molecule: CSCC[C@H](NC(=O)[C@H]1Cc2ccccc2CN1C(=O)[C@H](C(C)C)N(C)C(=O)[C@H](CS)NC(=O)[C@@H](N)CCCCN)C(=O)O

IC50 [4]: 11 nM
Molecule: CSCC[C@H](NC(=O)[C@@H]1Cc2ccccc2CN1C(=O)[C@@H](NC(=O)[C@H](CS)NC(C)=O)C(C)C)C(=O)O (Ac-CV[Tic]M-OH)

IC50 (Substance-P receptor [7]): 3 nM
Molecule: CC[C@H](C)[C@H](NC(=O)CNC(=O)[C@H](Cc1ccccc1)NC(=O)[C@@H](NC(=O)[C@H](CCC(N)=O)NC(=O)[C@H](CCC(=O)O)NC(=O)[C@H](CCCCN)NC(=O)[C@@H]1CCCN1C(=O)[C@@H](N)CCCNC(=N)N)[C@H]1CCc2ccccc21)C(=O)N[C@@H](CCSC)C(=O)O (H-RPKEQ[X1]FGIM-OH)

IC50 [6]: 1.7 nM
Molecule: O=C(O)CN1C(=O)[C@@H](N[C@@H](CCc2ccccc2)C(=O)O)CCc2ccccc21 [BENAZEPRILAT]

IC50 (Substance-P receptor [7]): 0.64 nM
Molecule: H-RPKEQFFGIM-OH
